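Interpolation was linear, between the two tested concentrations surrounding the appropriate level; five concentrations were tested over 48 hours in 96-well plates. Definition used: TGI = concentration required for complete inhibition of growth.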
Legend:
Experiment in all cases: inhibition of tumour cell growth, NCI panel, 48 h
[1] = test system: RXF 393 renal
[2] = test system: IGROV1 ovarian
[3] = test system: SNB-75 CNS
[4] = test system: NCI-H23 lung
[5] = test system: SF-539 CNS
[6] = test system: HCT-15 colon
[7] = test system: 786-0 renal
[8] = test system: NCI-H460 lung
[9] = test system: COLO 205 colon
[10] = test system: PC-3 prostate
[11] = test system: SK-MEL-5 melanoma
[12] = test system: CCRF-CEM leukemia
[13] = test system: MDA-N
[14] = test system: NCI/ADR-RES ovarian
[15] = test system: LOX IMVI melanoma
[16] = test system: SW-620 colon
[17] = test system: CAKI-1 renal
[18] = test system: SK-OV-3 ovarian
[19] = test system: SF-268 CNS
[20] = test system: HOP-62 NSCLC
[21] = test system: OVCAR-5 ovarian
[22] = test system: MDA-MB-231 breast
[23] = test system: HCC-2998 colon
[24] = test system: UO-31 renal
[25] = test system: MALME-3M melanoma
[26] = test system: MOLT-4 leukemia
[27] = test system: T-47D breast
[28] = test system: NCI-H226 lung
[29] = test system: U251 CNS
[30] = test system: SN12C renal
[31] = test system: SK-MEL-28 melanoma
[32] = test system: A498 renal
[33] = test system: HL-60(TB) leukemia
[34] = test system: M14 melanoma
[35] = test system: SNB-19 CNS
[36] = test system: HS 578T breast
[37] = test system: DU-145 prostate
[38] = test system: EKVX NSCLC
[39] = test system: MDA-MB-435
[40] = test system: OVCAR-4 ovarian
[41] = test system: HT29 colon
[42] = test system: HOP-92 NSCLC
[43] = test system: A549 NSCLC
[44] = test system: UACC-62 melanoma
[45] = test system: SF-295 CNS
[46] = test system: HCT-116 colon
[47] = test system: MCF7 breast
[48] = test system: K-562 leukemia
[49] = test system: BT-549 breast
[50] = test system: OVCAR-3 ovarian
[51] = test system: KM12 colon
[52] = test system: OVCAR-8 ovarian
[53] = test system: UACC-257 melanoma
[54] = test system: RPMI-8226 leukemia
[55] = test system: SK-MEL-2 melanoma
[56] = test system: NCI-H522 lung
[57] = test system: ACHN renal
[58] = test system: TK-10 renal

CCOC(=O)c1cc2c3c(c(C(C)=O)c(OC)c2[nH]1)N(C(=O)CC)CC3
TGI [1]: 37.2 µM | TGI [2]: 30 µM | TGI [3]: 57.1 µM | TGI [4]: 25 µM | TGI [5]: 41.7 µM | TGI [6]: 34.2 µM | TGI [7]: 34.9 µM | TGI [8]: 45.3 µM | TGI [9]: 41.8 µM | TGI [10]: 72.7 µM | TGI [11]: 24.5 µM | TGI [12]: 71.4 µM | TGI [13]: 39.4 µM | TGI [14]: 31 µM | TGI [15]: 29.6 µM | TGI [16]: > 100 µM | TGI [17]: 35.9 µM | TGI [18]: > 100 µM | TGI [19]: 36.6 µM | TGI [20]: 56.9 µM | TGI [21]: 89.5 µM | TGI [22]: 40.9 µM | TGI [23]: 76.5 µM | TGI [24]: 27 µM | TGI [25]: 35.8 µM | TGI [26]: 35.9 µM | TGI [27]: 45.4 µM | TGI [28]: 34.2 µM | TGI [29]: 47.6 µM | TGI [30]: 42.9 µM | TGI [31]: 44.7 µM | TGI [32]: > 100 µM | TGI [33]: 46.7 µM | TGI [34]: 50.5 µM | TGI [35]: 26.5 µM | TGI [36]: 57.9 µM | TGI [37]: 29.6 µM | TGI [38]: 30.6 µM | TGI [39]: 50.3 µM | TGI [40]: 40.9 µM | TGI [41]: 30.5 µM | TGI [42]: 28.9 µM | TGI [43]: 38.7 µM | TGI [44]: 34.4 µM | TGI [45]: 39.1 µM | TGI [46]: 30.9 µM | TGI [47]: 40.4 µM | TGI [48]: 50.5 µM | TGI [49]: 47.1 µM | TGI [50]: 34.4 µM | TGI [51]: 26.3 µM | TGI [52]: 46.9 µM | TGI [53]: 49.4 µM | TGI [54]: 26.2 µM | TGI [55]: 48.3 µM

O=C1c2ccccc2C2(c3ccc(F)cc3)NCCN12 (centres undefined)
TGI [1]: > 100 µM | TGI [2]: > 100 µM | TGI [3]: > 100 µM | TGI [4]: > 100 µM | TGI [6]: > 100 µM | TGI [7]: > 100 µM | TGI [8]: > 100 µM | TGI [9]: > 100 µM | TGI [10]: > 100 µM | TGI [11]: > 100 µM | TGI [12]: > 100 µM | TGI [13]: > 100 µM | TGI [14]: > 100 µM | TGI [16]: > 100 µM | TGI [17]: > 100 µM | TGI [18]: > 100 µM | TGI [19]: > 100 µM | TGI [20]: > 100 µM | TGI [21]: > 100 µM | TGI [22]: > 100 µM | TGI [23]: > 100 µM | TGI [24]: > 100 µM | TGI [25]: > 100 µM | TGI [26]: > 100 µM | TGI [27]: > 100 µM | TGI [28]: > 100 µM | TGI [29]: > 100 µM | TGI [30]: > 100 µM | TGI [31]: > 100 µM | TGI [33]: > 100 µM | TGI [34]: > 100 µM | TGI [35]: > 100 µM | TGI [56]: > 100 µM | TGI [36]: > 100 µM | TGI [57]: > 100 µM | TGI [37]: > 100 µM | TGI [38]: > 100 µM | TGI [39]: > 100 µM | TGI [40]: > 100 µM | TGI [41]: > 100 µM | TGI [43]: > 100 µM | TGI [44]: > 100 µM | TGI [45]: > 100 µM | TGI [46]: > 100 µM | TGI [47]: > 100 µM | TGI [48]: > 100 µM | TGI [49]: > 100 µM | TGI [50]: > 100 µM | TGI [58]: > 100 µM | TGI [51]: > 100 µM | TGI [52]: > 100 µM | TGI [53]: > 100 µM | TGI [54]: > 100 µM | TGI [55]: > 100 µM

From PubChem BioAssay (NCI)
